# From patent US11352356B2, “Inhibitors of plasma kallikrein and uses thereof” (Takeda Pharmaceutical Company Limited, priority 2018, dated 2022)
# Like-named read-outs stand apart in the source and are kept apart here.
# Molecular target: human activated kallikrein enzyme (Homo sapiens (Human), UniProt P03952)
# Test: Inhibition of human activated plasma kallikrein, fluorogenic peptide substrate assay, 500 pM enzyme format
# Type: biochemical
# Conditions: read-out: Primary Dose Response Assay: Average EC50
# Description: Example compounds were evaluated for inhibition of the human activated kallikrein enzyme in two formats of an assay employing a fluorogenic peptide substrate. In one assay format, the concentrations of reagents were as follows: 20 mM Tris pH 7.5, 1 mM EDTA, 150 mM sodium chloride, 0.1% PEG-400, 0.1% Triton X-100, 500 pM activated kallikrein enzyme, 300 uM Pro-Phe-Arg-7-amido-4-methylcoumarin substrate. Prior to reaction initiation with substrate, enzyme and inhibitors were preincubated for 30 min at RT. After initiation with substrate, reactions were incubated for 10 min at RT and fluorescence emission at 460 nm from 380 nm excitation measured with a microplate reader. In another assay format, the concentrations of reagents were as follows: 20 mM Tris pH 7.5, 1 mM EDTA, 150 mM sodium chloride, 0.1% PEG-400, 0.1% Triton X-100, 5 pM activated kallikrein enzyme, 300 uM Pro-Phe-Arg-7-amido-4-methylcoumarin substrate. Prior to reaction initiation with substrate, enzyme and inhibitors were preincubated for 30 min at RT. After initiation with substrate, reactions were incubated for 18 h at RT and fluorescence emission at 460 nm from 380 nm excitation measured with a microplate reader.
# [1] = 500 pM activated kallikrein, 300 uM Pro-Phe-Arg-7-amido-4-methylcoumarin substrate, 30 min preincubation, 10 min reaction at RT
# human activated kallikrein enzyme, sequence (P03952 391-638): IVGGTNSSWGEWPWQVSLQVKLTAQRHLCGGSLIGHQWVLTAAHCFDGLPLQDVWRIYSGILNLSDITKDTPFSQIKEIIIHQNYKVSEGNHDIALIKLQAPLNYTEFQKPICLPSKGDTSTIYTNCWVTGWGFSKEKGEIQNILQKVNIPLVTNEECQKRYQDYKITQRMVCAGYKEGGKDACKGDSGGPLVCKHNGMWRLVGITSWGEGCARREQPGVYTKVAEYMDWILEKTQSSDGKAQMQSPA
# human activated kallikrein enzyme, sequence (P03952 20-390 partner): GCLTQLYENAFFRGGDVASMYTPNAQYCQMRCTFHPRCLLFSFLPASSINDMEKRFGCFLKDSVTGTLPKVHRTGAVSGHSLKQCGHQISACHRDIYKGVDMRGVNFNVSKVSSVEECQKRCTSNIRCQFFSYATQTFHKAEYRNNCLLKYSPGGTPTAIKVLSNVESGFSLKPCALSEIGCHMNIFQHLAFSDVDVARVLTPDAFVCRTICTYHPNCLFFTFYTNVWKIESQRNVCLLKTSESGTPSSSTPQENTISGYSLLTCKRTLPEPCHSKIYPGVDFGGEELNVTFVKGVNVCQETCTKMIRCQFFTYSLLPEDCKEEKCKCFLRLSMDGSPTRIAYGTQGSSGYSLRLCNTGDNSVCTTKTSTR
Compound,EC50 [1] [nM],"EC50 (comparative compounds, 500 pM activated kallikrein format) [nM]"
"Ethyl 1-(2-((4-(((7-chloroimidazo[1,5-a]pyridin-1-yl)methyl)carbamoyl)-1H-pyrazol-1-yl)methyl)imidazo[1,2-a]pyridin-8-yl)cyclopropane-1-carboxylate [I-115]",< 1,
"1-(2-((4-(((7-chloroimidazo[1,5-a]pyridin-1-yl)methyl)carbamoyl)-1H-pyrazol-1-yl)methyl)imidazo[1,2-a]pyridin-8-yl)cyclopropane-1-carboxylic acid [I-116]",1 to 10,
"CCOC(=O)CCn1c(Cn2cc(C(=O)NCc3ncn4ccc(Cl)c(F)c34)nn2)cc2cc(C3CC3)ccc21 [I-251a, Ethyl 3-(2-((4-(((7-chloro-8-fluoroimidazo[1,5-a]pyridin-1-yl)methyl)carbamoyl)-1H-1,2,3-triazol-1-yl)methyl)-5-cyclopropyl-1H-indol-1-yl)propanoate]",1 to 10,
"N-((7-chloroimidazo[1,5-a]pyridin-1-yl)methyl)-1-((8-(1-(hydroxymethyl)cyclopropyl)imidazo[1,2-a]pyridin-2-yl)methyl)-1H-pyrazole-4-carboxamide [I-117]",< 1,
"O=C(NCc1ncn2ccc(Cl)c(F)c12)c1cn(Cc2cn3ccccc3n2)nn1 [I-286, N-((7-chloro-8-fluoroimidazo[1,5-a]pyridin-1-yl)methyl)-1-(imidazo[1,2-a]pyridin-2-ylmethyl)-1H-1,2,3-triazole-4-carboxamide]",10 to 100,
"O=C(NCc1ncn2ccc(Cl)c(F)c12)c1cn(Cc2ccc3nccnc3c2)nn1 [I-292, N-((7-chloro-8-fluoroimidazo[1,5-a]pyridin-1-yl)methyl)-1-(quinoxalin-6-ylmethyl)-1H-1,2,3-triazole-4-carboxamide]",10 to 100,
"N-((7-chloro-8-fluoroimidazo[1,5-a]pyridin-1-yl)methyl)-1-((8-(2-cyano-2-methylpropyl)-6-cyclopropylimidazo[1,2-a]pyridin-2-yl)methyl)-1H-pyrazole-4-carboxamide [I-237]",< 1,
"CC(C)(C(=O)O)C(O)c1cc(C2CC2)cn2cc(Cn3cc(C(=O)NCc4ncn5ccc(Cl)c(F)c45)nn3)nc12 (centres unmarked) [I-241b, 3-(2-((4-(((7-chloro-8-fluoroimidazo[1,5-a]pyridin-1-yl)methyl)carbamoyl)-1H-1,2,3-triazol-1-yl)methyl)-6-cyclopropylimidazo[1,2-a]pyridin-8-yl)-3-hydroxy-2,2-dimethylpropanoic acid]",< 1,
"O=C(NCc1ncn2ccc(Cl)c(F)c12)c1cn(Cc2cn3cc(C4CC4)cc(CC(F)C(=O)O)c3n2)nn1 (centres unmarked) [I-224b, 3-(2-((4-(((7-chloro-8-fluoroimidazo[1,5-a]pyridin-1-yl)methyl)carbamoyl)-1H-1,2,3-triazol-1-yl)methyl)-6-cyclopropylimidazo[1,2-a]pyridin-8-yl)-2-fluoropropanoic acid]",< 1,
"COc1ccc2nc(CNC(=O)c3cnn(Cc4cn5ccc(C6CC6)cc5n4)c3)cn2c1 [I-12, 1-((7-cyclopropylimidazo[1,2-a]pyridin-2-yl)methyl)-N-((6-methoxyimidazo[1,2-a]pyridin-2-yl)methyl)-1H-pyrazole-4-carboxamide]",10 to 100,
"N-((7-chloroimidazo[1,5-a]pyridin-1-yl)methyl)-1-((6-cyclopropyl-8-(2-methoxyethoxy)imidazo[1,2-a]pyridin-2-yl)methyl)-1H-pyrazole-4-carboxamide [I-103]",< 1,
Cc1ccn2cc(Cn3cc(C(=O)NCc4cnc5ccc(Cl)cn45)cn3)nc2c1 [reference compound],,100 to 2000
"O=C(NCc1ncn2ccc(Cl)cc12)c1cnn(Cc2cn3nc(C4CC4)ccc3n2)c1 [I-11, N-((7-chloroimidazo[1,5-a]pyridin-1-yl)methyl)-1-((6-cyclopropylimidazo[1,2-b]pyridazin-2-yl)methyl)-1H-pyrazole-4-carboxamide]",1 to 10,
"O=C(NCc1ncn2ccc(Cl)c(F)c12)c1cn(Cc2cc3ccc(C4CC4)cc3o2)nn1 [I-219, N-((7-chloro-8-fluoroimidazo[1,5-a]pyridin-1-yl)methyl)-1-((6-cyclopropylbenzofuran-2-yl)methyl)-1H-1,2,3-triazole-4-carboxamide]",10 to 100,
